Measurements published in patent US5219884A, “Immunosuppressant” (Taito Co., Ltd., priority 1990, dated 1993).
Where two headings read alike, the source gives them in different places.

Tests used:
[1] = test system: IL2 production in PHA-stimulated mouse spleen cells; assay: suppression of IL2 production in PHA-stimulated mouse spleen cells; assay type: cell-based; details: for inhibition at 0.01 µg/mL / inhibition at 0.1 µg/mL / inhibition at 1 µg/mL / inhibition at 10 µg/mL: Mus musculus, 24 h, read-out: Suppression
Procedure: Culture of PHA-stimulated mouse spleen cells was carried out as follows: PHA (1/100 dilution) was added to the BALB/c mouse spleen cells suspension prepared in the same way as in Experimental Example 4. The cell suspension (1 ml) and 1 ml of the test substance were added to 24-well multidishes, and cultured at 37° C. in an atmosphere of 5% carbon dioxide for 24 hours. After termination of the culture, the supernatant was collected and used as the supernatant of PHA-stimulated cultures.
The IL2 activity in the supernatants of mouse allogenic MLC and the supernatants of PHA-stimulated mouse spleen cells culture was assayed as follows: IL2-dependent mouse cell line CTLL-2 cells were suspended in the RPMI1640 culture medium supplemented with 30% FCS to the concentration of 10^5 cells/ml, and 100 μl of the suspension was added to each well of 96-well microculture plates in which 100 μl of the supernatant of the MLC described above had been placed. After culturing at 37° C. in an atmosphere of 5% carbon dioxide for 20 hours, 0.5 μCi/well of ^3 H-thymidine was added, and incubated for 4 hours under the same conditions. After termination of the culture, the cells were harvested by a cell harvester, and the radioactivity incorporated into the cells was measured by a liquid scintillation counter. IL2 activity was expressed in U/ml as the titer at various concentrations at which the ^3 H-thymidine incorporation was 50% of the maximum.

[2] = test system: IL3-dependent mouse cell line FDC-P2; assay: suppression of IL3-induced proliferation of FDC-P2; assay type: cell-based; details: for inhibition at 0.001 µg/mL / inhibition at 0.01 µg/mL / inhibition at 0.1 µg/mL / inhibition at 1 µg/mL / inhibition at 10 µg/mL: Mus musculus, 24 h
Procedure: IL3-dependent mouse cell line FDC-P2 cells were suspended in the RPMI1640 culture medium supplemented with 10% FCS to the concentration of 2×10^5 cells/ml. One hundred μl of the suspension and 50 μl of the supernatant of the culture of mouse luekemia cells WEHI3 containing IL3 were added to each well of 96-well microculture plates in which 100 μl of the test substance had been placed. After culturing at 37° C. in an atmosphere of 5% carbon dioxide for 20 hours, 0.5 μCi/well of ^3 H-thymidine was added, and cultured for 4 hours under the same conditions. After termination of the culture, the cells were harvested by a cell harvester, and the radioactivity incorporated into the cells was determined by a liquid scintillation counter, and was used as an index of the IL3-dependent proliferation.

[3] = test system: mouse spleen cells stimulated with phytohemagglutinin (PHA); assay: suppression of blastogenic response of mouse spleen cells by PHA; assay type: cell-based; details: PHA (1/100); for inhibition at 0.01 µg/mL / inhibition at 0.1 µg/mL / inhibition at 1 µg/mL: Mus musculus, 76 h
Procedure: The effect on the mouse blastogenic response of mouse spleen cells stimulated with phytohemagglutinin (PHA) or with pokeweed mitogen (PWM) was examined as follows:
The spleen was resected from 5- to 8-week-old male […] BALB/c mice, and single cell suspension of spleen cells was prepared by using the RPMI1640 culture medium supplemented with 5% FCS. After hemolytic treatment, the concentration of the suspension was adjusted to 5×10^6 cells/ml by using the RPMI1640 culture medium supplemented with 10^-4 M 2-mercaptoethanol and 20% FCS, to which PHA or PWM was added. One hundred μl of the cell suspension was added to each well of 96-well microculture plates to which 100 μl per well of the test solution had been added (5×10^5 mouse spleen cells per well). After culturing at 37° C. in an atmosphere of 5% carbon dioxide for 72 hours, 0.5 μCi/well of ^3 H-thymidine was added and cultured under the same conditions for further 4 hours. After termination of the culture, the cells were harvested by a cell harvester, and the radioactivity incorporated into the cells was measured by a liquid scintillation counter, which was used as the index of blastogenic response of mouse spleen cells.

[4] = cytotoxicity to tumor cell line PC-6; assay type: cell-based, human; details: human, pc-6 cells, read-out: Suppression
Procedure: (§1) Cytotoxicity to human tumor cell lines was examined as follows:
(§2) Cells of human cell lines, K562, MOLT4, U937, HL60, KATOIII, KB, PC-6, PC-14 and CCRF-CEM were separately suspended to the concentration of 2×10^5 cells/ml in the RPMI1640 culture medium supplemented with 20% FCS. Fifty μl of this suspension was added to each well of 96-well microculture plates to which 50 μl of the test solution had been added. After culturing at 37° C. in an atmosphere of 5% carbon dioxide for 72 hours, the absorbancy at 550 nm was measured in the same way as the colorimetry using MTT in Experimental Example 1, and the percent suppression was calculated in the same manner as in Experimental Example 14, which was used as the index of cytotoxicity.

PC-6 = assay: cytotoxicity to tumor cell line PC-6; assay type: cell-based, human
Procedure: as §1, §2

Structure (SMILES) | IL2 activity ([1]; 0.01 μg/ml) [U/ml] | IL2 activity ([1]; 0.1 μg/ml) [U/ml] | IL2 activity ([1]; 1 μg/ml) [U/ml] | IL2 activity ([1]; 10 μg/ml) [U/ml] | 3H-thymidine uptake ([2]; 0.001 μg/ml) [cpm] | 3H-thymidine uptake ([2]; 0.01 μg/ml) [cpm] | 3H-thymidine uptake ([2]; 0.1 μg/ml) [cpm] | 3H-thymidine uptake ([2]; 1 μg/ml) [cpm] | 3H-thymidine uptake ([2]; 10 μg/ml) [cpm] | inhibition at 0.001 µg/mL ([2]; 0.001 μg/ml) [%] | inhibition at 0.01 µg/mL ([2]; 0.01 μg/ml) [%] | inhibition at 0.1 µg/mL ([2]; 0.1 μg/ml) [%] | inhibition at 1 µg/mL ([2]; 1 μg/ml) [%] | inhibition at 10 µg/mL ([2]; 10 μg/ml) [%] | inhibition at 0.01 µg/mL ([3]; 0.01 μg/ml) [%] | inhibition at 0.1 µg/mL ([3]; 0.1 μg/ml) [%] | inhibition at 1 µg/mL ([3]; 1 μg/ml) [%] | 3H-thymidine uptake ([3]; 0.01 μg/ml) [cpm] | 3H-thymidine uptake ([3]; 0.1 μg/ml) [cpm] | 3H-thymidine uptake ([3]; 1 μg/ml) [cpm] | also measured
CCCCCCC(=O)CCCCCC/C=C/CC(O)C(O)C(N)(CO)C(=O)O (stereo not shown) [Example 1] | 6.5 | 2.5 | 1.1 | < 1 | 6858 | 6572 | 5203 | 5029 | 2750 | 21.5 | 25.7 | 45.9 | 48.5 | 82.1 | 71.9 | 66.8 | 92.4 | 3238 | 3624 | 1686 | inhibition at 0.01 µg/mL [1]: 46.3%; inhibition at 0.1 µg/mL [1]: 79.3%; inhibition at 1 µg/mL [1]: 90.9%; inhibition at 10 µg/mL [1]: > 92%; cytotoxicity at 72 h ([4]; 0.1 μg/ml): 9.9%; cytotoxicity at 72 h ([4]; 1.0 μg/ml): 23.2%; cytotoxicity at 72 h ([4]; 100.0 μg/ml): 100%; Absorbancy (PC-6; 0.01 μg/ml): 0.244; Absorbancy (PC-6; 0.1 μg/ml): 0.245; Absorbancy (PC-6; 1.0 μg/ml): 0.209; Absorbancy (PC-6; 10.0 μg/ml): 0.202; Absorbancy (PC-6; 100.0 μg/ml): 0.000
CCCCCCC(=O)CCCCCC/C=C/CC1OC(=O)C(N)(CO)C1O (stereo not shown) [Example 4] | 4.9 | 2.6 | < 1 | < 1 | 7754 | 6557 | 5861 | 4922 | 2902 | 8.3 | 25.9 | 36.2 | 50.1 | 79.9 | 34.5 | 57.8 | 71 | 6074 | 4312 | 3308 | inhibition at 0.01 µg/mL ([1]; 0.01 μg/ml): 59.5%; inhibition at 0.1 µg/mL ([1]; 0.1 μg/ml): 78.5%; inhibition at 1 µg/mL ([1]; 1 μg/ml): > 92%; inhibition at 10 µg/mL ([1]; 10 μg/ml): > 92%; cytotoxicity at 72 h ([4]; 0.1 μg/ml): 15.1%; cytotoxicity at 72 h ([4]; 1.0 μg/ml): 6.2%; cytotoxicity at 72 h ([4]; 10.0 μg/ml): 6.9%; cytotoxicity at 72 h ([4]; 100.0 μg/ml): 95.2%; Absorbancy (PC-6; 0.1 μg/ml): 0.247; Absorbancy (PC-6; 1.0 μg/ml): 0.273; Absorbancy (PC-6; 10.0 μg/ml): 0.271; Absorbancy (PC-6; 100.0 μg/ml): 0.014
